system: anti-survivin T-cell response; assay: Phase I/II vaccination study, T cell response (IFN-g ELISPOT, +/-ICS); type: in vivo, human; details: among the 16 reacting patients

For “TLGEFLKLDRERAKN (listed as Homo sapiens) [IMA-BIR-002]”, the “patients with induction of an anti-survivin T-cell response upon vaccination” value was 12.

same assay, conditions: of the 19 patients, prostate carcinoma, s.c. vaccination

With “TLGEFLKLDRERAKN (listed as Homo sapiens) [IMA-BIR-002]” the “patients who reacted to the peptide (IFN-g ELISPOT, +/-ICS)” value was 16.

system: CD8+ T cells; assay: In vitro priming of CD8+ T cells with pMHC/anti-CD28 coated beads, multimer staining readout; type: cell-based, human; details: HLA-A*24 healthy donors, three stimulations, A*2402 multimer+ CD8+
Source text: In order to perform in vitro stimulations by artificial antigen presenting cells (aAPC) loaded with peptide-MHC complex (pMHC) and anti-CD28 antibody, we first isolated CD8 T cells from fresh HLA-A*24 leukapheresis products of healthy donors obtained from the Blood Bank Tuebingen.
CD8 T cells were either directly enriched from the leukapheresis product or PBMCs (peripheral blood mononuclear cells) were isolated first by using standard gradient separation medium (PAA, Cölbe, Germany). Isolated CD8 lymphocytes or PBMCs were incubated until use in T-cell medium (TCM) consisting of RPMI-Glutamax (Invitrogen, Karlsruhe, Germany) supplemented with 10% heat inactivated human AB serum (PAN-Biotech, Aidenbach, Germany), 100 U/ml Penicillin/100 μg/ml Streptomycin (Cambrex, Cologne, Germany), 1 mM sodium pyruvate (CC Pro, Oberdorla, Germany), 20 μg/ml Gentamycin (Cambrex). […] Isolation of CD8+ lymphocytes was performed by positive selection using CD8 MicroBeads (Miltenyi Biotec, Bergisch-Gladbach, Germany).
800.000 beads/200 μl were coated in 96-well plates in the presence of 600 ng biotin anti-CD28 plus 200 ng relevant biotin-pMHC (high density beads). Stimulations were initiated in 96-well plates by co-incubating 1×10^6 CD8+ T cells with 2×10^5 washed coated beads in 200 μl TCM supplemented with 5 ng/ml IL-12 (PromoCell) for 3-4 days at 37° C. Half of the medium was then exchanged by fresh TCM supplemented with 80 U/ml IL-2 and incubating was continued for 3-4 days at 37° C. This stimulation cycle was performed for a total of three times. […] For analysis, a BD LSRII SORP cytometer equipped with appropriate lasers and filters was used. Peptide specific cells were calculated as percentage of total CD8+ cells. Evaluation of multimeric analysis was done using the FlowJo software (Tree Star, Oregon, USA). In vitro priming of specific multimer+ CD8+ lymphocytes was detected by appropriate gating and by comparing to negative control stimulations.

“AYLVYTDRL (listed as Homo sapiens) [PPAP2C-001]” and “FYISPVNKL (listed as Homo sapiens) [AVL9-001]” are the same in “Positive donors/donors tested [%]” value: 100% for the first, 100% for the second.

First: HYKPTPLYF (listed as Homo sapiens) [SMC4-001]
Second: LYQILQGIVF (listed as Homo sapiens) [CDC2-001]
The “Positive donors/donors tested [%]” value of the first is lower: 75% for the first, 88% for the second.

Going from “NYLLYVSNF (listed as Homo sapiens) [MST1R-001]” to “NYLPFIMEL (listed as Homo sapiens) [UCHL5-001]”, the “Positive donors/donors tested [%]” value rises from 50% to 75%.

Going from “RFLSGIINF (listed as Homo sapiens) [NUF2-002]” to “SYIDVLPEF (listed as Homo sapiens) [MET-006]”, the “Positive donors/donors tested [%]” value rises from 50% to 63%.

Compared with “SYIIDPLNL (listed as Homo sapiens) [PROM1-001]”, “SYNPLWLRI (listed as Homo sapiens) [ASPM-002]” is lower in “Positive donors/donors tested [%]” value: 83% for the first, 63% for the second.

First: TYGNLLDYL (listed as Homo sapiens) [ABL1-001]
Second: VWSDVTPLTF (listed as Homo sapiens) [MMP11-001]
The “Positive donors/donors tested [%]” value of the first is higher: 50% for the first, 33% for the second.

First: VYGIRLEHF (listed as Homo sapiens) [NUF2-001]
Second: VYIEKNDKL (listed as Homo sapiens) [ERBB3-001]
The “Positive donors/donors tested [%]” value of the first is higher: 100% for the first, 83% for the second.

For “YYNAAGFNKL (listed as Homo sapiens) [UQCRB-001]”, the “Positive donors/donors tested [%]” value was 100%.

Going from “AYLVYTDRL (listed as Homo sapiens) [PPAP2C-001]” to “FYISPVNKL (listed as Homo sapiens) [AVL9-001]”, the “Positive wells/wells tested [%]” value falls from 54% to 50%.

Going from “HYKPTPLYF (listed as Homo sapiens) [SMC4-001]” to “LYQILQGIVF (listed as Homo sapiens) [CDC2-001]”, the “Positive wells/wells tested [%]” value rises from 9% to 28%.

“NYLLYVSNF (listed as Homo sapiens) [MST1R-001]” and “NYLPFIMEL (listed as Homo sapiens) [UCHL5-001]” are the same in “Positive wells/wells tested [%]” value: 14% for the first, 14% for the second.

First: RFLSGIINF (listed as Homo sapiens) [NUF2-002]
Second: SYIDVLPEF (listed as Homo sapiens) [MET-006]
The “Positive wells/wells tested [%]” value of the first is lower: 4% for the first, 22% for the second.

Going from “SYIIDPLNL (listed as Homo sapiens) [PROM1-001]” to “SYNPLWLRI (listed as Homo sapiens) [ASPM-002]”, the “Positive wells/wells tested [%]” value rises from 26% to 31%.

Going from “TYGNLLDYL (listed as Homo sapiens) [ABL1-001]” to “VWSDVTPLTF (listed as Homo sapiens) [MMP11-001]”, the “Positive wells/wells tested [%]” value falls from 13% to 11%.

Going from “VYGIRLEHF (listed as Homo sapiens) [NUF2-001]” to “VYIEKNDKL (listed as Homo sapiens) [ERBB3-001]”, the “Positive wells/wells tested [%]” value falls from 25% to 15%.

For “YYNAAGFNKL (listed as Homo sapiens) [UQCRB-001]”, the “Positive wells/wells tested [%]” value was 38%.

system: HLA-DR broad antigens (HLA-DR1 to DR7); assay: ProImmune REVEAL MHC:peptide in vitro binding assay; parameters: species or system human; details: HLA-DR1, 3, 4 and 11; result in words
Experimental: The ProImmune REVEAL™ technology employs in vitro HLA-DR assembly assays to determine the on-rates for the MHC:peptide complex as one major determinant of the binding constant of individual peptides. The assay was performed by ProImmune (Oxford, UK). At a fixed time point, the amount of intact MHC:peptide complexes is measured and compared with the amount for a pass/fail control (relative weak binder). A strong, promiscuous HLA-DR binder is included as positive control. Values indicate amount of binding for the individual peptides and HLA-DR molecules relative to the pass/fail control.
In this assay, binding was compared to that of a pass/fail control binder, and to a positive control peptide for each HLA-DR antigen.

In the case of “TLGEFLKLDRERAKN (listed as Homo sapiens) [IMA-BIR-002]”, the “in vitro binding to HLA-DR” value is reported as “promiscuous binding”.

Source: patent US9132177B2, “Composition of tumor-associated peptides and related anti-cancer vaccine for the treatment of gastric cancer and other cancers” (priority 2010, dated 2015)
